From ChEMBL document CHEMBL1201862, “PubChem BioAssay data set” (2004)
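48-hour exposure; five concentrations; linearly interpolated endpoints. GI50 is the concentration that inhibits growth by half.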 The source made the active and inactive calls. No stated cut-off is given here; in the data, active = GI50 up to about 1.1 µM and inactive = higher.

Tests used:
Assay in all cases: NCI-60 cell line screen, 48 h
[1] = test system: 786-0
[2] = test system: A498
[3] = test system: DU-145
[4] = test system: HT-29
[5] = test system: Hs-578T
[6] = test system: KM12
[7] = test system: RPMI-8226
[8] = test system: SF-539
[9] = test system: SK-MEL-2
[10] = test system: SK-MEL-5
[11] = test system: SN12C
[12] = test system: T47D
[13] = test system: TK-10
[14] = test system: U-251
[15] = test system: UACC-257
[16] = test system: UACC-62
[17] = test system: UO-31
[18] = test system: IGROV-1
[19] = test system: OVCAR-5
[20] = test system: OVCAR-3

Measured: GI50

CCC(=O)NCC1CCCN2CCCCC12 (configuration not stated)
inactive: [1] > 100 µM | [2] > 100 µM | [3] > 100 µM | [4] > 100 µM | [5] > 100 µM | [6] > 100 µM | [7] > 100 µM | [8] > 100 µM | [9] > 100 µM | [10] > 100 µM | [11] > 100 µM | [12] > 100 µM | [13] > 100 µM | [14] > 100 µM | [15] > 100 µM | [16] > 100 µM | [17] > 100 µM

C=CCOCn1cnc2c(=O)[nH]c(N)nc21
inactive: [1] > 100 µM | [2] > 100 µM | [3] > 100 µM | [5] > 100 µM | [18] > 100 µM | [6] > 100 µM | [19] > 100 µM | [7] > 100 µM | [8] > 100 µM | [9] > 100 µM | [10] > 100 µM | [11] > 100 µM | [12] > 100 µM | [13] > 100 µM | [14] > 100 µM | [16] > 100 µM | [17] > 100 µM

CC1(C)CC2=C(Sc3ccccc3N2)C(=O)C1C(=O)C(=O)Nc1cc(Cl)ccc1Cl (configuration not stated)
inactive: [1] > 100 µM | [2] > 100 µM | [3] > 100 µM | [4] 77.6 µM | [5] > 100 µM | [18] > 100 µM | [6] > 100 µM | [20] > 100 µM | [19] > 100 µM | [7] > 100 µM | [8] > 100 µM | [9] > 100 µM | [10] 42.1 µM | [11] > 100 µM | [12] 82.8 µM | [14] > 100 µM | [15] > 100 µM | [16] > 100 µM | [17] > 100 µM

O=C(C(Cl)=C(N1CCOCC1)N1CCOCC1)C(Cl)Cl
inactive: [1] > 100 µM | [2] > 100 µM | [3] > 100 µM | [4] > 100 µM | [5] > 100 µM | [18] > 100 µM | [6] > 100 µM | [20] > 100 µM | [7] > 100 µM | [8] > 100 µM | [10] > 100 µM | [11] > 100 µM | [12] > 100 µM | [13] > 100 µM | [15] > 100 µM | [16] > 100 µM | [17] > 100 µM

CCOC(=O)c1cc(Br)c(-c2onc(C)c2Br)[nH]1
inactive: [1] 21.6 µM | [2] 48.2 µM | [3] > 100 µM | [4] > 100 µM | [5] 26.7 µM | [18] 40.2 µM | [6] > 100 µM | [20] > 100 µM | [19] > 100 µM | [7] > 100 µM | [8] 31.6 µM | [9] 80.7 µM | [10] 42.1 µM | [11] 80.7 µM | [12] > 100 µM | [14] 19.1 µM | [15] 93.5 µM | [16] 36.9 µM | [17] > 100 µM

CN(C(=O)[C@H](NC(=O)OCc1ccccc1)c1ccccc1)C1CCCCC1N1CCCC1 (some centres not stated)
inactive: [1] 95.1 µM | [2] 89.9 µM | [3] > 100 µM | [4] 38.1 µM | [5] 19.6 µM | [18] 70.3 µM | [6] > 100 µM | [20] > 100 µM | [19] > 100 µM | [7] 36.3 µM | [9] > 100 µM | [10] 16 µM | [11] > 100 µM | [12] > 100 µM | [13] 74.6 µM | [14] > 100 µM | [15] 26.1 µM | [16] > 100 µM | [17] 48.5 µM

N/N=C(\N)Nc1cccc2ccccc12
inactive: [1] > 100 µM | [2] 33.3 µM | [3] > 100 µM | [4] > 100 µM | [5] > 100 µM | [18] > 100 µM | [6] > 100 µM | [19] > 100 µM | [7] > 100 µM | [8] > 100 µM | [10] > 100 µM | [11] > 100 µM | [12] > 100 µM | [13] > 100 µM | [14] > 100 µM | [15] > 100 µM | [16] > 100 µM | [17] > 100 µM

Cc1cc(S(=O)(=O)Nc2cc(N)n[nH]2)c(SCc2nc(N)nc(N(C)C)n2)cc1Cl
inactive: [1] > 10 µM | [2] > 10 µM | [3] > 10 µM | [4] > 10 µM | [5] > 10 µM | [18] > 10 µM | [6] > 10 µM | [20] > 10 µM | [19] > 10 µM | [7] > 10 µM | [8] > 10 µM | [9] > 10 µM | [10] > 10 µM | [11] > 10 µM | [12] > 10 µM | [13] > 10 µM | [14] > 10 µM | [15] > 10 µM | [17] > 10 µM

O=C(NCP(=O)(c1ccccc1)c1ccccc1)OCc1ccccc1
inactive: [1] 37.2 µM | [2] > 100 µM | [3] > 100 µM | [4] > 100 µM | [5] 43.6 µM | [18] > 100 µM | [6] > 100 µM | [20] 54.3 µM | [19] > 100 µM | [7] > 100 µM | [8] > 100 µM | [9] > 100 µM | [10] > 100 µM | [11] > 100 µM | [12] > 100 µM | [13] > 100 µM | [14] 84.5 µM | [16] > 100 µM | [17] > 100 µM

CC(=N\N=C\c1ccccn1)/C(C)=N/N=C(C)/C(C)=N/N=C(C)/C(C)=N/N=C/c1ccccn1
inactive: [1] > 100 µM | [2] > 100 µM | [3] > 100 µM | [4] > 100 µM | [5] > 100 µM | [18] > 100 µM | [6] > 100 µM | [20] > 100 µM | [19] > 100 µM | [7] > 100 µM | [8] > 100 µM | [9] > 100 µM | [10] > 100 µM | [11] > 100 µM | [12] > 100 µM | [13] > 100 µM | [14] > 100 µM | [15] > 100 µM | [17] > 100 µM

COc1cc(COC(=O)N2CCC2C(=O)O)c([N+](=O)[O-])cc1OC (configuration not stated)
inactive: [1] > 100 µM | [2] > 100 µM | [3] > 100 µM | [4] > 100 µM | [5] > 100 µM | [18] > 100 µM | [6] > 100 µM | [20] > 100 µM | [19] > 100 µM | [7] > 100 µM | [8] > 100 µM | [10] > 100 µM | [11] > 100 µM | [12] > 100 µM | [13] > 100 µM | [14] > 100 µM | [15] > 100 µM | [16] > 100 µM | [17] > 100 µM
